# In patent publication US20220127297A1, “Novel Antibacterial 3"-Derivatives Of 4,6-Disubstituted 2,5-Dideoxystreptamine Aminoglycoside Antibiotics” (AGILeBiotics B.V., priority 2018, published 2022):
# Key:
# E. coli C1162 = assay: MIC determination at Uppsala University; assay type: cell-based; settings: Escherichia coli, APH(3′)-Ia
# Excerpt: (§1) 3.4.1 MIC Determination at Uppsala University (Sweden)
# (§2) Tested reference compounds. Amikacin disulfate (Cat. No. A1774, Sigma Aldrich), Apramycin sulfate (Cat. No. A2024, Sigma Aldrich) and Gentamicin sulfate (Cat. No. G1914, Sigma Aldrich).
# (§3) Bacterial strains/isolates. All assayed laboratory and clinical strains (P. aeruginosa PA01, A. baumanii ATCC 19606, A. baumanii 195N(a), A. baumanii 48F, E. coli C1162, E. coli C1181, M. morgannii S49 and P. stuartii B8-1) were from the IMI ND4BB ENABLE consortium strain collection. ATCC laboratory strains were acquired directly from the American Type Culture Collection. Clinical strains used were previously published (M Juhas, et al. J. Antimicrob. Chemother., 74 (4), 944-952 (2019); D. Hughes et al., Antimicrob. Agents Chemother., 47 (10), 3222-3232 (2003)) and were resistance genotyped within the ENABLE consortium.
# (§4) Culture media and equipment. Water (Thermo Scientific, R05819); Mueller-Hinton II broth (BD Ref. 212322); sterile round-bottom 96-well plates (Thermo Scientific, 262162); Sensititre Nephelometer (ThermoFisher Scientific, V3011); 0.5 McFarland Standard (ThermoFisher Scientific, E1041); sterile polyester film (VWR, 391-1251).
# (§5) Compound preparation. MIC assay procedure follows the CLSI M07 standard method (Clinical and Laboratory Standards Institute (CLSI); Methods for dilution antimicrobial susceptibility tests for bacteria that grow aerobically; approved standard—eleventh edition, M07-A10, Vol. 38, No. 2, 2018). Test compounds were received as solids and were dissolved in water to a concentration of 10 mg/mL of active compound. […] This solution was serially diluted in 2-fold steps in the first 10 columns of sterile round-bottom 96-well plates, while the final two columns were filled with Mueller-Hinton II broth without added compound for use as positive and negative growth controls.
# (§6) Inoculum preparation. Inoculums were prepared by suspending several colonies freshly streaked culture of test strains in 5 mL of sterile 0.9% NaCl. The cell density of the inoculum solution was assessed and adjusted using a Sensititre Nephelometer and a 0.5 McFarland Standard. The inoculum was diluted 1:100 in Mueller-Hinton II broth and 50 μL of this inoculum solution was added to 50 μL of the test compound solutions yielding a concentration range of 64-0.125 μg/mL. The plates were sealed with sterile polyester film and stationarily incubated at 37° C. for 18 hours.
# (§7) MIC determination. The MIC value was determined by visual inspection of bacterial growth within 96-well plates. The lowest concentration completely inhibiting growth was reported as the MIC for each strain and compound combination.
# A. baumanii 195N (a) = assay: MIC determination at Uppsala University; assay type: cell-based; settings: Acinetobacter baumannii, AAC(3)Ia, ANT(3″)Ia, APH(3″)Ib, APH(3′)VI, APH(6)Id
# Excerpt: as §1, §2, §3, §4, §5, §6, §7
# E. coli C1181 = assay: MIC determination at Uppsala University; assay type: cell-based; settings: Escherichia coli, ANT(3″)-Ia, APH(3′)-Ia
# Excerpt: as §1, §2, §3, §4, §5, §6, §7
# P. aeruginosa PAO1 = assay: MIC determination at Uppsala University; assay type: cell-based; settings: Pseudomonas aeruginosa, AMEs: WT
# Excerpt: as §1, §2, §3, §4, §5, §6, §7
# A. baumanii ATCC 19606 = assay: MIC determination at Uppsala University; assay type: cell-based; settings: Acinetobacter baumannii, ATCC19606, AMEs: WT
# Excerpt: as §1, §2, §3, §4, §5, §6, §7
# M. morgannii S49 = assay: MIC determination at Uppsala University; assay type: cell-based; settings: Morganella morganii, AAC(3)-IId, ANT(3″), APH(3″)-Ib, APH(3′)-Ia, APH(6)-Id
# Excerpt: as §1, §2, §3, §4, §5, §6, §7
# [1] = tested on: Escherichia coli (ATCC 700336); assay: MIC against the strain of the urinary tract infection model; assay type: cell-based; settings: ATCC700336
# [2] = tested on: Escherichia coli ATCC700336; assay: Urinary tract infection model; assay type: in vivo, female C3H/HeNRj mice; settings: for Change from vehicle group / Avg. Log CFU/g (kidney pair): SC, QD; for Change from vehicle group: Avg. Log CFU/g (kidney pair) vs vehicle; for Avg. Log CFU/g (kidney pair): kidneys 24 hours post treatment
# Description: 4.3 Urinary Tract Infection Model (Escherichia coli ATCC700336)
# Two compounds, i.e. ABX5006 and ABX5026, and a comparator antibiotic (gentamicin sulfate; Cat. No. G4918, Sigma Aldrich) were tested in a mouse model of urinary tract infection with Escherichia coli ATCC700336.
# Urinary tract infection model: Pathogen-free female C3H/HeNRj mice (8 mice per dosing group) weighing 24±4 g were used.
# For subcutaneous treatment, pre-weighed reference compound (gentamicin sulfate) was dissolved in 0.9% sodium chloride solution, to reach a final concentration of 1.5 mg/mL for a dose of 15 mg/kg (group 3) or 3.0 mg/mL for a dose of 30 mg/kg (group 2). Each mouse was infected transurethral with Escherichia coli ATCC700336 (5.0×10^1 CFU/100 μL/mouse), under light ketamine/xylazine anesthesia. Mice were water deprived 1.5 hours prior to infection and 1 hour post infection.
# Animals were dosed subcutaneously once either with gentamicin (groups 2-3), ABX5006 (groups 4-5), ABX5026 (groups 6-7) or vehicle—PBS (group 1) 24 hours post infection.
# Both kidneys were aseptically removed and placed into pre-weighed sterile Precellys test tube containing 2 mL of sterile PBS. Post-sampling, Precellys test tubes were weighed once again. Kidneys were homogenized in sterile PBS by Precellys Evolution, homogenizer, BERTIN Technologies, and serially diluted for CFU determination. Kidney pairs of one animal will represent one sample.
# Supplies/Chemicals. Tryptic Soy Agar (BD Cat. no. 236950, Becton Dickinson), Trypticase Soy Broth (BD Cat. no. 211768, Becton Dickinson), 2 mL syringes (BD Plastipak, Ref. 300185, Becton Dickinson), 1 mL syringes (BD Plastipak, Ref. 300013, Becton Dickinson), Sterile, single use needles (BD MICROLANCE, 27 G ¾, Nr. 20 ref. 300220, Becton Dickinson), Sterile, single use needles (BD MICROLANCE, 25 G 1, Nr. 18 ref. 300400, Becton Dickinson), Narkamon (100 mg/mL ketamine chloride) (Bioveta, a.s., Czech Republic), Xylazine 2% (Alfasan International B.V., Woerden, Netherlands), Saline (HZ™, serial no.: 1422115), PBS (Sigma, cat. no. P4417, Germany), Precellys lysing kit (ref. no. KT03961-1-302.7, Bertin technologies, France).
# Inoculum preparation for intramuscular infection. Escherichia coli ATCC 700336 was grown on Tryptic Soy Agar plate and incubated for 18-20 h at 37° C. Bacterial agar growth was suspended to 1.0×10^10 colony-forming units (CFU)/mL in adequate volume of tryptic soy broth (TSB), and the inoculum was held at 4° C. until it was used for infection.
# CFU determination. Kidney pairs were homogenized using a Precellys Evolution homogenizer (Bertin Instruments).
SMILES,MIC90 (E. coli C1162) [µg/mL],MIC90 (A. baumanii 195N (a)) [µg/mL],MIC90 (E. coli C1181) [µg/mL],MIC90 (P. aeruginosa PAO1) [µg/mL],MIC90 (A. baumanii ATCC 19606) [µg/mL],MIC90 (M. morgannii S49) [µg/mL],MIC [1] [µg/mL],CFU count reduction in kidneys in comparison to the vehicle control group ([2]; dose 15 mg/kg SC QD) [log 10],Change from vehicle group ([2]; dose 15 mg/kg),Avg. Log CFU/g (kidney pair) ([2]; dose 15 mg/kg) [Log CFU/g],CFU count reduction in kidneys in comparison to the vehicle control group ([2]; dose 30 mg/kg SC QD) [log 10],Change from vehicle group ([2]; dose 30 mg/kg),Avg. Log CFU/g (kidney pair) ([2]; dose 30 mg/kg) [Log CFU/g],"samples with CFU counts below the limit of detection ([2]; kidneys, LOD=2.0×10^2 CFU/mL)"
"NCC[C@H](O)C(=O)N[C@@H]1C[C@H](N)[C@@H](O[C@H]2O[C@H](CN)[C@@H](O)[C@H](O)[C@H]2O)[C@H](O)[C@H]1O[C@H]1O[C@H](CO)[C@@H](O)[C@H](N)[C@H]1O [Amikacin, amikacin, reference compound]",4,> 64,4,4,16,4,,,,,,,,
"N=C(NC[C@@H]1CCNC1)NC1[C@@H](O)C(OC2[C@@H](F)[C@H](O[C@H]3OC(CN)[C@@H](O)CC3N)C(N)C[C@H]2NC(=O)[C@@H](O)CCN)O[C@H](CO)[C@H]1O (stereo partly drawn) [ABX5039, Tobra-AHB-F-Gua (R) pyrrolidine-3-ylmethyl]",1,4,0.5,1,8,1,,,,,,,,
"N=C(NC[C@@H]1CCCN1)NC1[C@@H](O)C(OC2[C@@H](F)[C@H](O[C@H]3OC(CN)[C@@H](O)CC3N)C(N)C[C@H]2NC(=O)[C@@H](O)CCN)O[C@H](CO)[C@H]1O (stereo partly drawn) [ABX5026, Tobra-AHB-F-Gua (S) pyrrolidine-2-yl-methyl]",1,8,0.5,1,8,2,1,1.58,1.58,1.40,1.72,1.22,2.26,five out of eight
"N=C(N)NC1C(O)[C@@H](CO)OC(OC2C(F)[C@H](O[C@H]3OC(CN)[C@@H](O)CC3N)C(N)C[C@H]2NC(=O)[C@@H](O)CCN)[C@@H]1O (stereo partly drawn) [ABX5006, Tobra-AHB-F-Gua]",1,4,1,1,8,1,0.25,1.38,1.38,2.60,1.53,1.53,1.45,
